Test results published in US10246711B2, “RNAi inhibitors of glucose-6-phosphate dehydrogenase for treating cardiovascular and pulmonary conditions” (priority 2016, dated 2019).

Key:
Format in all cases: cell-based
[1] = tested on: polymerase delta, cyclin E1, cyclin B1; assay: Western blot of replication and cell cycle proteins in rat pulmonary artery smooth muscle cells; conditions: rat PASMC, normoxic and hypoxic conditions
Procedure: (§1) FIGS. 4A-4B are blots showing rat pulmonary artery smooth muscle cells that were cultured in 15% DMEM for 48 hr and transfected with G6PD-siRNA#1 and G6PD-siRNA#2, respectively (0.5 and 1.0 μl=50 ng and 100 ng, respectively). The cells were then subjected to hypoxia (1% 02) for 72 hr. Expression of G6PD protein was estimated using western blot analyses. UT=Untransfected; NT=non-targeting/scrambled sequence (FIG. 4A). Beta-Actin (ACTB) was used as loading control. FIG. 4B are blots showing the effect of G6PD-siRNA#2 treatment, on the expression of G6PD (FIG. 4B-panel 2), polymerase delta (FIG. 4B-panel 3), cyclin E1 (FIG. 4B-panel 4), and cyclin B (FIG. 4B-panel 5), under normoxic and hypoxic conditions, in these cells were determined using Western blot analyses. GAPDH was used as a loading control.
(§2) In FIGS. 4A-B, rat pulmonary artery smooth muscle cells were cultured in 15% DMEM for 48 hr. Cells were then transfected with G6PD-siRNA#1 and G6PD-siRNA#2, respectively (0.5 and 1.0 μl=50 ng and 100 ng, respectively) and subjected to hypoxia (1% 02) for 72 hr. […] GAPDH was used as a loading control.

G6PD protein = assay: Western blot of G6PD protein in hypoxic rat pulmonary artery smooth muscle cells; conditions: rat PASMC; 50 ng and 100 ng; hypoxia (1% O2) 72 hr; compared to untransfected (UT), non-targeting (NT) and G6PD-siRNA#1; FIG. 4A
Procedure: as §1, §2

G6PD = G6PD knockdown by G6PD-specific siRNA sequence (preliminary results); conditions: based on preliminary results
Procedure: PASM cells cultured in a 12-well plate were transfected for 72 h with 100 nmol/1 shRNA targeting G6PD using lipid-based and nano-particle based transfection system. Control experiments were performed using a nontargeting/scrambled (NT) shRNA (negative control).

Substance	expression of polymerase delta ([1]; FIG. 4B-panel 3)	expression of cyclin E1 ([1]; FIG. 4B-panel 4)	expression of cyclin B1 ([1]; FIG. 4B-panel 5)	G6PD protein expression (G6PD protein)	downregulation of G6PD (G6PD)
G6PD-siRNA#2: Sense (SEQ ID NO. 6) 5′ CGACGAAGCGCAGACAGCGUC 3′; Antisense (SEQ ID NO. 7) 5′GACGCUGUCUGCGCUUCGUCG3′ (listed as RNA, chemistry not given here)	significantly down-regulated	significantly down-regulated	significantly down-regulated	significantly down-regulated	–
SEQ ID NO: 2: G6PD-specific siRNA gene sequence CAACAUCGCCUGCGUUAUC; nucleotide positions 922-940 of SEQ ID NO. 1 (expressed or natural sequence)	–	–	–	–	specifically and efficaciously downregulated G6PD
